US20250026769A1, “PAPD5 INHIBITORS AND METHODS OF USE THEREOF” (The Children's Medical Center Corporation, priority 2021, published 2025)
Like-named read-outs stand apart in the source and are kept apart here.

Experiments:
[1] = tested on: hepatitis B surface antigen (HBSAg) from HepG2.2.15 cells, a hepatitis B virus-expressing cell line; assay: HBsAg ELISA in supernatant of HepG2.2.15 cells; format: cell-based; settings: HepG2.2.15, 96 h
Procedure: HepG2.2.15 cells, a hepatitis B virus-expressing cell line (Sells, M. A. et al., PNAS, 1987), were plated at 50,000 cells/well in DMEM/F12 media (Gibco) with 10% fetal bovine serum (Omega Scientific) in a 24-well or 96-well plate (Corning), in 2-3 replicates for each test compound/concentration plus controls, and incubated in a humidified 5% CO2 chamber at 37° C. The next day, media was aspirated, cells were washed once with phosphate buffered saline, pH7.4 (Gibco), and 1 mL DMEM/12 media was replaced. Test compounds were added in 3-fold dilutions from up to 100 μM down to 333 pM, with vehicle (dimethylsulfoxide (Sigma)) as a control. After four days of culture in a humidified 5% CO2 chamber at 37° C., plates were spun down in a centrifuge at 300 g for 10 minutes at room temperature. Supernatant from each well was collected and either frozen at −20° C. or used directly for quantitation of hepatitis B surface antigen (HBSAg) in an enzyme-linked immunosorbent assay (ELISA). The supernatant was tested using the HBSAg ELISA kit (Abnova Cat. No KA0286) per the manufacturer's instructions. Results of replicates were averaged and nonlinear curve fitting was used to determine the half maximal inhibitory concentration (IC50) for each test compound.

rPAPD5 = target: T1, rPAPD5 (Homo sapiens, UniProt Q8NDF8); assay: differential scanning fluorimetry (DSF) binding and stabilization of rPAPD5; settings: for ΔTm at 100 µM: 100 μM test compound, read-out: ΔTm at 100 μM; for ΔTm at 1 µM: 1 μM test compound (Table 2a), read-out: ΔTm at 1 μM
T1 construct: made in house
T1 sequence (Q8NDF8 68-698 isoform Q8NDF8-5 limits assumed): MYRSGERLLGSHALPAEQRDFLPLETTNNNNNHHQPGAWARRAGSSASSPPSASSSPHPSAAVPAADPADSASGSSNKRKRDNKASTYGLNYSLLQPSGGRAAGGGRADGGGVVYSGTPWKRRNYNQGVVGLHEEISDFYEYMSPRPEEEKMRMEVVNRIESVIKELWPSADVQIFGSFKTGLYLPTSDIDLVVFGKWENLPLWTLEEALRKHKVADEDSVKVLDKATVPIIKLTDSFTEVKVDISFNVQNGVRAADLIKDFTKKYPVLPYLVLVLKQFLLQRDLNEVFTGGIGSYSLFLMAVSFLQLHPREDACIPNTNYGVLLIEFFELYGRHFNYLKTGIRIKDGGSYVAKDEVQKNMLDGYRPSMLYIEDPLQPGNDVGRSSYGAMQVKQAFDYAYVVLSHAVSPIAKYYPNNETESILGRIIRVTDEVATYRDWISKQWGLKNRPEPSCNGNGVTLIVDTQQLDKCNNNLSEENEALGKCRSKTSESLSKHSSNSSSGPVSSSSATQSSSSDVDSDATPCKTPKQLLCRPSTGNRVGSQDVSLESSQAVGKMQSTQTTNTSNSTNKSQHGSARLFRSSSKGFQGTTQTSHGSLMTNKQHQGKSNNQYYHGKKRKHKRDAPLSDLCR
Summary of the method: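 Differential scanning fluorimetry was used to measure how test compounds bind and thermally stabilize rPAPD5. The reaction contained SYPRO orange dye diluted 1:5000 in […] of buffer with […], 25 mM Tris-HCl, 5 mM MgCl2 and 50 mM KCl. ΔTm was calculated relative to a DMSO control.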

[2] = tested on: telomere length in DC patient iPSCs; assay: telomere length / telomere elongation in DC patient iPSCs; format: cell-based, human; settings: for concentration at which telomere elongation was observed: DC patient iPSCs, after 3-4 weeks of cell culture; for minimal effective concentration: Homo sapiens, iPSC, patient iPSCs, concentration class at which activity is seen, read-out: iPSC-based Telomere length
Procedure: (§1) Compound 266A had activity ˜2-logs higher in the in vitro RNA oligoadenylation assay compared to the parental compound cmpd. 1, approximating the activity of RG7834 (FIG. 7). […] 1. Compounds 295A and 296A had activity 2-3 logs higher in DC patient iPSCs, showing TERC maturation at 1 nM, similar to RG7834 (FIG. 6). […] Referring to Table 1D, “+” refers to activity at 1 μM, “++” refers to activity above 1 nM and below 1 μM, and “+++” refers to activity at <1 nM, “ND” refers to not determined.

[3] = tested on: TERC 3′ end processing in DC patient iPSCs; assay: TERC 3′ end processing by RACE in DC patient / PARN-mutant iPSCs; format: cell-based, human; settings: for minimal effective concentration: Homo sapiens, iPSC, patient iPSCs, concentration class at which activity is seen, read-out: iPSC-based RACE activity
Procedure: as §1

[4] = 10 μM test compound (Table 2a), read-out: ΔTm at 10 μM
[5] = 10 μM test compound, shift vs DMSO control, read-out: ΔTm (Table 2, starred: the compound was tested at 10 μM)

SMILES	IC50 [1]	ΔTm at 100 µM (rPAPD5; shift vs DMSO control)	concentration at which telomere elongation was observed [2]	activity in DC patient iPSCs (TERC maturation) relative to cmpd. 1 ([3]; DC patient iPSCs, higher / more potent than cmpd. 1)	concentration showing maturation of TERC 3′ end processing by RACE ([3]; DC patient iPSCs)	ΔTm at 1 µM (rPAPD5)	ΔTm at 10 µM (rPAPD5; [4])	ΔTm at 10 µM (rPAPD5; [5])	minimal effective concentration [2]	minimal effective concentration [3]
O=C(O)c1cc(Cl)ccc1Nc1c(S(=O)(=O)N2CCOCC2)cnc2ccc(Cl)cc12 [Compound 266A, 5-chloro-2-[(6-chloro-3-morpholinosulfonyl-4-quinolyl)amino]benzoic acid]	0.102 µM	> 5 °C	10 nM	1-2 logs	–	–	–	–	–	–
Cl.O=C(O)c1cc(Cl)ccc1Nc1c(-c2ncco2)cnc2ccc(Cl)cc12 [Compound 295A, 5-chloro-2-[(6-chloro-3-oxazol-2-yl-4-quinolyl)amino]benzoic acid]	0.318 µM	> 5 °C	1 nM	–	1 nM	–	–	–	–	–
O=C(O)c1cc(Cl)ccc1Nc1c(C2=CCSCC2)cnc2ccc(Cl)cc12 [Compound 342A, 5-chloro-2-[[6-chloro-3-(3,6-dihydro-2H-thiopyran-4-yl)-4-quinolyl]amino]benzoic acid]	0.821 µM	–	–	–	–	> 5 °C	> 5 °C	> 5 °C	< 0.001 µM	< 0.001 µM
O=C(O)c1cc(Cl)ccc1Nc1c(C2CCC(F)(F)CC2)cnc2ccc(Cl)cc12 [Compound 343A, 5-chloro-2-[[6-chloro-3-(4,4-difluorocyclohexyl)-4-quinolyl]amino]benzoic acid]	0.086 µM	–	–	–	–	> 5 °C	> 5 °C	> 5 °C	< 0.001 µM	< 0.001 µM
O=C(O)c1cc(Cl)ccc1Nc1c(S(=O)(=O)N2CCC(F)(F)CC2)cnc2ccc(Cl)cc12 [Compound 345A, 5-chloro-2-[[6-chloro-3-[(4,4-difluoro-1-piperidyl)sulfonyl]-4-quinolyl]amino]benzoic acid]	0.523 µM	> 5 °C	–	–	–	> 5 °C	> 5 °C	–	< 0.001 µM	0.001 to 1 µM
O=C(O)c1cc(Cl)ccc1Nc1c(S(=O)(=O)N2CCSCC2)cnc2ccc(Cl)cc12 [Compound 349A, 5-chloro-2-[(6-chloro-3-thiomorpholinosulfonyl-4-quinolyl)amino]benzoic acid]	0.16 µM	> 5 °C	–	–	–	> 5 °C	> 5 °C	–	< 0.001 µM	0.001 to 1 µM
O=C(O)c1cc(Cl)ccc1Nc1c(-c2cnco2)cnc2ccc(Cl)cc12 [Compound 353A, 5-chloro-2-[(6-chloro-3-oxazol-5-yl-4-quinolyl)amino]benzoic acid]	0.438 µM	> 5 °C	–	–	–	1 to 5 °C	> 5 °C	–	< 0.001 µM	0.001 to 1 µM
CN1CCN(c2cnc3ccc(Cl)cc3c2Nc2ccc(Cl)cc2C(=O)O)CC1 [Compound 361A, 5-chloro-2-[[6-chloro-3-(4-methylpiperazin-1-yl)-4-quinolyl]amino]benzoic acid]	0.311 µM	> 5 °C	–	–	–	> 5 °C	> 5 °C	–	< 0.001 µM	0.001 to 1 µM
O=C(O)c1cc(Cl)ccc1Nc1c(-c2ccncc2)cnc2ccc(Cl)cc12 [Compound 391A, 5-chloro-2-[[6-chloro-3-(4-pyridyl)-4-quinolyl]amino]benzoic acid]	0.735 µM	> 5 °C	–	–	–	1 to 5 °C	> 5 °C	–	< 0.001 µM	0.001 to 1 µM
O=C(O)c1cc(Cl)ccc1Nc1c(N2CCC(O)CC2)cnc2ccc(Cl)cc12 [Compound 399A, 5-chloro-2-[[6-chloro-3-(4-hydroxy-1-piperidyl)-4-quinolyl]amino]benzoic acid]	–	> 5 °C	–	–	–	> 5 °C	> 5 °C	–	< 0.001 µM	< 0.001 µM
Cc1cc2ncc(S(=O)(=O)N3CCSCC3)c(Nc3ccc(Cl)cc3C(=O)O)c2cc1Cl [Compound 411A, 5-chloro-2-[(6-chloro-7-methyl-3-thiomorpholinosulfonyl-4-quinolyl)amino]benzoic acid]	–	–	–	–	–	> 5 °C	> 5 °C	> 5 °C	< 0.001 µM	< 0.001 µM
O=C(O)c1cc(Cl)ccc1Nc1c(S(=O)(=O)N2CCSCC2)cnc2cc(C(F)(F)F)c(Cl)cc12 [Compound 413A, 5-chloro-2-[[6-chloro-3-thiomorpholinosulfonyl-7-(trifluoromethyl)-4-quinolyl]amino]benzoic acid]	–	–	–	–	–	1 to 5 °C	> 5 °C	> 5 °C	< 0.001 µM	< 0.001 µM
O=C(O)c1cc(Cl)ccc1Nc1c(S(=O)(=O)N2CCSCC2)cnc2cc(Cl)c(Cl)cc12 [Compound 414A, 5-chloro-2-[(6,7-dichloro-3-thiomorpholinosulfonyl-4-quinolyl)amino]benzoic acid]	–	–	–	–	–	> 5 °C	> 5 °C	> 5 °C	< 0.001 µM	< 0.001 µM
O=C(O)c1cc(Cl)ccc1Nc1c(S(=O)(=O)N2CCSCC2)cnc2cc(Br)c(Cl)cc12 [Compound 416A, 2-[(7-bromo-6-chloro-3-thiomorpholinosulfonyl-4-quinolyl)amino]-5-chloro-benzoic acid]	–	–	–	–	–	> 5 °C	> 5 °C	> 5 °C	< 0.001 µM	< 0.001 µM
COc1cc(Cl)cc2c(Nc3ccc(Cl)cc3C(=O)O)c(S(=O)(=O)N3CCSCC3)cnc12 [Compound 418A, 5-chloro-2-[(6-chloro-8-methoxy-3-thiomorpholinosulfonyl-4-quinolyl)amino]benzoic acid]	0.112 µM	> 5 °C	–	–	–	> 5 °C	> 5 °C	–	< 0.001 µM	< 0.001 µM
O=C(O)c1cc(Cl)ccc1Nc1c(S(=O)(=O)N2CCSCC2)cnc2c(C(F)(F)F)cc(Cl)cc12 [Compound 419A, 5-chloro-2-[[6-chloro-3-thiomorpholinosulfonyl-8-(trifluoromethyl)-4-quinolyl]amino]benzoic acid]	–	< 1 °C	–	–	–	> 5 °C	> 5 °C	–	< 0.001 µM	< 0.001 µM
O=C(O)c1cc(Cl)ccc1Nc1c(S(=O)(=O)N2CCSCC2)cnc2c(Br)cc(Cl)cc12 [Compound 422A, 2-[(8-bromo-6-chloro-3-thiomorpholinosulfonyl-4-quinolyl)amino]-5-chloro-benzoic acid]	–	–	–	–	–	> 5 °C	> 5 °C	> 5 °C	< 0.001 µM	< 0.001 µM
Cc1nc2ccc(Cl)cc2c(Nc2ccc(Cl)cc2C(=O)O)c1S(=O)(=O)N1CCSCC1 [Compound 423A, 5-chloro-2-[(6-chloro-2-methyl-3-thiomorpholinosulfonyl-4-quinolyl)amino]benzoic acid]	–	> 5 °C	–	–	–	> 5 °C	> 5 °C	–	< 0.001 µM	< 0.001 µM
